The record followed here is article PMC12040169 (PLOS Biology, 2025).

A short description of the data set: in vitro. To be noted: human, hela cells.

Usually viability stands for a read-out of living cells in per cent, often relative to untreated cells. For the compound `CCc1nc2c(OCCOC)cccn2c1N(CCOC)C(C)=O` [CBK147845], where the note is “% viability”, the viability at 28.5 h, 10 µM worked out at 97.4%.
As to `CC1CCN(CCCNS(=O)(=O)c2ccc(N3CCCC3=O)cc2)CC1` [CBK304220], the viability at 28.5 h, 10 µM (% viability) came out at 95.9%.
Same read-out and setting: then `CN1CCN(c2ccc(NC(=O)c3ccc([N+](=O)[O-])o3)cc2)CC1` [CBK269727], with 18.8%; and `Cc1cc(C(=O)N2CCC(c3nnc(CN(C)C)n3C)CC2)ccc1F` [CBK306748], with 95.5%; and `CCCCNc1cc(N2CCN(C(=O)COC)CC2)nc(N)n1` [CBK304078], with 98.8%.
Regarding `CCc1ccc(NC(=N)Nc2nc(CSc3ncccn3)cc(=O)[nH]2)cc1` [CBK268836], under “% viability”, the viability at 28.5 h, 10 µM is 88.1%.
On the same count and under the same terms, the value for `CCN(CC)C(=O)C1CCCN1C(=O)c1ccnc(N(C)C)c1` (centres unmarked) [CBK305086] was 99.7%; that for `CN1C(=O)c2ccccc2C(=O)[C@@]2(C)CN(C(=O)c3ccccc3)C[C@@H]12` [CBK281685] was 93.2%; that for `CC(=O)Nc1cccc(-c2cnc(N(C)S(C)(=O)=O)c(C(=O)NCc3ccc4c(c3)CCO4)c2)c1` [CBK076609] was 99.7%.
Still for that read-out and setting: then `CN1CCN(CCOC(=O)N2CCC(C(F)(F)F)CC2)CC1` [CBK200206], with 103%; and `O=C(NCC1CCCCC1)N1CCN(c2ccc(F)cc2)CC1` [CBK156397], with 86.9%.
The same measure, in the same setting: then `CNC(=O)C1(Cc2ccc(-c3ccccc3)cc2)CCN(C(=O)Cc2ccccc2F)CC1` [CBK285768], with 94.8%; and `CCOc1cccc(NC(=O)/C(C#N)=C\c2cc(OC)c(O)cc2Br)c1` [CBK263189], with 95.2%; and `Cc1c(C(=O)C2=C(O)C(=O)N(CCN3CCOCC3)C2c2ccccn2)cnn1-c1ccccc1` (centres unmarked) [CBK266493], with 112%.
As to `O=C(NCc1cccc2ccccc12)C1(c2ccccc2)CCCC1` [CBK149534], the viability at 28.5 h, 10 µM (% viability) is 96.6%.
Regarding `COc1ccc(-n2ccn(C(=O)CCC3CCCC3)c2=O)cc1` [CBK106595], the viability at 28.5 h, 10 µM (% viability) amounted to 90.4%.
As to `O=C1NC(=O)C(CCc2ccccn2)(CCc2ccccn2)C(=O)N1c1ccc(F)cc1` [CBK268816], for the setting “% viability, bulk resorufin, single well”, the viability at 28.5 h, 10 µM was 93%.
On to `COc1cc(F)cc(OC2CCNCC2)c1NC(=O)C1(c2ccccc2)CCCCC1` [CBK050241T], for which the viability at 28.5 h, 10 µM (% viability) worked out at 107%.
Still for that read-out and setting: then `Cc1cnccc1-c1c[nH]nc1C1CCCN1C(=O)c1ccccc1` (centres unmarked) [CBK285499], with 104%; and `Cc1cc(C)c2cc(C)c3nn(CC(=O)N(C)C)c(=O)n3c2c1` [CBK283821], with 81.8%; and `CC(=O)c1c[nH]c(=O)[nH]c1=O` [CBK012093], with 115%.
For the compound `Nc1nonc1-c1nc2ccccc2[nH]1` [CBK062657], under “% viability”, the viability at 28.5 h, 10 µM came out at 89.4%.
Still for that read-out and setting: then `CCN(CC(=O)NCc1ccc(F)cc1)S(=O)(=O)c1ccc(Cl)s1` [CBK305837], with 88.2%; and `COc1ccnc(N2CCN(C(=O)c3cnn(C)c3C3CC3)CC2)n1` [CBK304900], with 85.3%.
On the same count and under the same terms, the value for `Cc1c(C(=O)N2CCC(c3ccncc3)CC2)oc2ccccc12` [CBK282413] was 109%; that for `CC1(C)CC(NC(=O)COc2ccc([N+](=O)[O-])cc2)CC(C)(C)N1` [CBK266806] was 98%; that for `CCCc1cc(CNC(=O)c2cnn(-c3ccc(F)cc3)c2)on1` [CBK282463] was 86.6%.
Still for that read-out and setting: then `COc1ccc2c(c1)cc(C)c1n[nH]c(=O)n12` [CBK283766], with 76.7%; and `Cc1csc(N2CCN(CC(O)COCc3ccco3)CC2)n1` (centres unmarked) [CBK306151], with 98.5%.
Take `C[C@H](NC(=O)C1CC(=O)N(c2ccc(F)cc2)C1)C(=O)N1CCC(C(=O)O)CC1` (some centres unmarked) [CBK286733]: the viability at 28.5 h, 10 µM (% viability) amounted to 79.7%.
Still for that read-out and setting: the value for `O=C(c1cc[nH]n1)N1CCOCC1` [CBK027868] was 89.2%; that for `CC(=O)N1CCc2sccc2C1c1ccc(NC(=O)c2ccco2)cc1` (centres unmarked) [CBK286199] was 102%; that for `CC[C@H]1CN(S(=O)(=O)c2c(C)noc2C)CC[C@H]1CC(=O)Nc1nccs1` [CBK288779] was 88.3%.
As for `Cc1cc(C(F)(F)F)n(CC(C)CNC(=O)Cc2csc(C)n2)n1` (centres unmarked) [CBK306733], the viability at 28.5 h, 10 µM (% viability) was 87.8%.
The same measure, in the same setting: the value for `CC[C@H]1CN(C(C)=O)CC[C@H]1CC(=O)NCc1ccc2c(c1)OCO2` [CBK289131] was 89.2%; that for `Cc1cc(NC(=O)c2cccc(Br)c2)nc2c1c(=O)oc1ccccc12` [CBK291238] was 94.3%.
Same read-out and setting: then `Cc1nc(C)n(CCc2nc3ccccc3[nH]2)n1` [CBK269364], with 105%.
As to `COc1ccc(C)c(NC(=O)NCCc2c[nH]cn2)c1` [CBK269992], the viability at 28.5 h, 10 µM (% viability) stood at 88.8%.
Take `Cn1cnc(C(=O)N2CC[C@H]3NC(=O)c4ccccc4OCCCCC[C@H]3C2)c1` [CBK292031]: the viability at 28.5 h, 10 µM (% viability) came out at 88.9%.
Same read-out and setting: the value for `CCCc1n[nH]c(C2CN(CCn3cccn3)CCO2)n1` (centres unmarked) [CBK304842] was 106%.
On the same count and under the same terms, the value for `O=C(CCc1cc(F)ccc1F)NCCCn1nc2n(c1=O)CCCC2` [CBK305782] was 97.7%.
Still for that read-out and setting: the value for `O=C(O)c1cc(S(=O)(=O)Nc2ccccc2C(=O)O)ccc1Br` [CBK262371] was 98.8%; that for `Clc1ccc(-c2noc(-c3ccco3)n2)cc1` [CBK026405] was 86%.
As to `Nc1ncnc2c1ccn2[C@@H]1O[C@H](CO)[C@H](O)C1O` (some centres unmarked) [CBK201176], the viability at 28.5 h, 10 µM amounted to 0%.
On to `CCC1(CC)Cc2ccccc2-c2nc(NN)n(Cc3ccccc3)c(=O)c21` [CBK263217], for which the viability at 28.5 h, 10 µM (% viability) stood at 102%.
Consider `Cn1ccnc1C1(O)CCN(C(=O)Nc2cccc(F)c2)CC1` [CBK282279], for which, under “% viability”, the viability at 28.5 h, 10 µM stood at 109%.
Turning to `COC(=O)c1ccc(NS(=O)(=O)c2ccc(C)c(C(=O)O)c2)c(C)c1` [CBK296684], where the note is “% viability”, the viability at 28.5 h, 10 µM is 105%.
Take `Cc1ccc(CN(Cc2ccco2)CC(O)COCc2ccco2)s1` (centres unmarked) [CBK304610]: the viability at 28.5 h, 10 µM (% viability) turned out to be 96.7%.
For `CCCCCNC(=O)N1CCN(CCCC(c2ccc(F)cc2)c2ccc(F)cc2)CC1` [CBK024917C], where the note is “% viability”, the viability at 28.5 h, 10 µM amounted to 103%.
The same measure, in the same setting: then `COc1ccc(Cl)cc1N(CC(=O)Nc1ccccc1C(=O)O)S(C)(=O)=O` [CBK264137], with 96.9%; and `O=C(Cc1ccccn1)N1CCCc2ccccc21` [CBK200343], with 105%.
Take `C/C=C/c1ccc(OCCCSc2ccc(Cl)cc2)c(OC)c1` [CBK264147]: the viability at 28.5 h, 10 µM (% viability) turned out to be 97.5%.
Still for that read-out and setting: the value for `CCOC(=O)c1csc(C2CCCN2C(=O)CCc2ccccc2O)n1` (centres unmarked) [CBK305448] was 109%.
Same read-out and setting: then `FC(F)(F)c1nnc2ccc(-n3ccnc3)nn12` [CBK020041], with 96.1%.
The same measure, in the same setting: then `Cc1ccccc1-n1ncc2c(N3CCCC3)ncnc21` [CBK287648], with 99.2%; and `O=[N+]([O-])c1ccc(-c2nc(NCc3cccnc3)c3ccccc3n2)cc1` [CBK264788], with 100%.
Regarding `O=C(NCCN1CCC(O)(c2ccc(F)cc2)CC1)c1cccs1` [CBK283163], where the note is “% viability”, the viability at 28.5 h, 10 µM was determined as 91.5%.
The same measure, in the same setting: the value for `COc1ccc(S(=O)(=O)N2CCCC(C(=O)NCc3ccc4c(c3)OCO4)C2)cc1Cl` (centres unmarked) [CBK268230] was 89.1%; that for `O=C(c1cscn1)N1CCc2ccccc2C1` [CBK200342] was 96.6%; that for `CNC(=O)c1sc2ccccc2c1C1CN(Cc2cn(C)c3cc(OC)ccc23)CCO1` (centres unmarked) [CBK286087] was 91.9%.
On to `COc1cc(C=O)ccc1OCC(=O)Nc1ccc(C)c(Cl)c1` [CBK266190], for which the viability at 28.5 h, 10 µM (% viability) was 111%.
Take `Cc1nc(-c2cccnc2)sc1C(=O)NC(C)C1CC2CCC1C2` (centres unmarked) [CBK281637]: the viability at 28.5 h, 10 µM (% viability) was 84.2%.
The same measure, in the same setting: the value for `CCCN1CCN(CC(=O)NCc2ccco2)CC1` [CBK270300] was 84.2%.
On the same count and under the same terms, the value for `N#Cc1c(Oc2cccc(Cl)c2Cl)cccc1C(F)(F)F` [CBK002592] was 91.1%; that for `CC1CC(Nc2ccccc2)c2ccccc2N1C(=O)CCCC(=O)O` (centres unmarked) [CBK286960] was 89.3%; that for `OCCN1CC2(CCN(Cc3cccc(Oc4ccccc4)c3)CC2)c2ccccc21` [CBK131528] was 88.7%.
Still for that read-out and setting: the value for `O=C(N/N=C/c1cc(Br)c(Br)o1)c1cccc(F)c1` [CBK261688] was 94.2%; that for `NC(CC(=O)O)c1cccc([N+](=O)[O-])c1` (centres unmarked) [CBK262903C] was 96.9%; that for `CC(Oc1ccccc1)C(=O)Nc1c[nH]c(=O)[nH]c1=O` (centres unmarked) [CBK266524] was 72.3%.
Turning to `O=C(CCNC(=O)c1ccc(Br)o1)NCc1ccccc1Cl` [CBK294454], the viability at 28.5 h, 10 µM (% viability) was 81.5%.
On the same count and under the same terms, the value for `CCOC(=O)C1(C2CCCCC2)CCN(C(=O)CCSC)CC1` [CBK136929] was 113%; that for `Cc1c(S(=O)(=O)Nc2nnn[nH]2)sc2ccc(Cl)cc12` [CBK062392] was 91.7%.
In the case of `OC(Cn1nc(-c2ccccc2)cc1-c1ccccc1)Cn1c2ccc(Cl)cc2c2cc(Cl)ccc21` (centres unmarked) [CBK261418], for the setting “% viability”, the viability at 28.5 h, 10 µM was determined as 84.7%.
Regarding `O=C(NO)c1nc[nH]c1C(=O)NO` [CBK262077], the viability at 28.5 h, 10 µM (% viability) turned out to be 97.7%.
Still for that read-out and setting: the value for `CCCN1CC(NS(=O)(=O)c2cc(-n3cccn3)ccc2C)CC1=O` (centres unmarked) [CBK306835] was 98.3%; that for `Cc1nc(C(F)(F)F)ccc1C(=O)N1CCCC1c1ccc[nH]1` (centres unmarked) [CBK306328] was 107%; that for `CC1CCN(S(=O)(=O)c2cc(S(=O)(=O)N3CCC(C)CC3)c3cccc4c3c2NC4=O)CC1` [CBK263716] was 91.2%.
On to `N#Cc1ccc(CN2CCC(NC3CCCn4nccc43)C2=O)cc1` (centres unmarked) [CBK304770], for which the viability at 28.5 h, 10 µM (% viability) stood at 97.8%.
On the same count and under the same terms, then `O=C(O)C[C@]1(C(=O)Nc2ccc(F)cc2)CC(/C=C/c2ccccc2)=NO1` [CBK286608], with 87.3%; and `O=S1(=O)C=C(c2ccc(Cl)cc2)S(=O)(=O)CC1` [CBK018403], with 86.3%.
